Data from ChEMBL document CHEMBL1201862, “PubChem BioAssay data set” (2004).
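These data come from cells grown in 96-well plates and exposed to compound for 48 hours at five concentrations. Here, GI50 denotes the concentration required for 50% inhibition of growth.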 Calls of active or inactive are those of the source. Rule as the data show it: active = GI50 up to about 1.1 µM and inactive = higher.

Columns and labels:
Assay in all cases: DTP human tumour cell line panel, 48 h
[1] = test system: A549
[2] = test system: CCRF-CEM
[3] = test system: DU-145
[4] = test system: HCT-15
[5] = test system: HL-60
[6] = test system: HOP-62
[7] = test system: LOX IMVI
[8] = test system: MDA-N
[9] = test system: NCI-H23
[10] = test system: NCI-H460
[11] = test system: OVCAR-4
[12] = test system: SK-MEL-28
[13] = test system: SK-MEL-5
[14] = test system: SNB-75
[15] = test system: T47D
[16] = test system: SF-539

SMILES | GI50 [1] | GI50 [2] | GI50 [3] | GI50 [4] | GI50 [5] | GI50 [6] | GI50 [7] | GI50 [8] | GI50 [9] | GI50 [10] | GI50 [11] | GI50 [12] | GI50 [13] | GI50 [14] | GI50 [15] | GI50 [16]
C[N+]1(C(CO)Cc2c[nH]c3ccccc23)Cc2ccccc2C1 (configuration not stated) | 59.4 µM (inactive) | > 100 µM (inactive) | > 100 µM (inactive) | > 100 µM | > 100 µM (inactive) | > 100 µM (inactive) | > 100 µM (inactive) | > 100 µM (inactive) | > 100 µM (inactive) | > 100 µM (inactive) | > 100 µM (inactive) | 31.7 µM (inactive) | 32.6 µM (inactive) | > 100 µM (inactive) | > 100 µM (inactive) | 
CC1CC(NN)=Nc2ccccc2N1 (configuration not stated) | > 100 µM (inactive) | 40.3 µM (inactive) | > 100 µM (inactive) | > 100 µM | 60.3 µM (inactive) | > 100 µM (inactive) |  | > 100 µM (inactive) | > 100 µM (inactive) | > 100 µM (inactive) | > 100 µM (inactive) | > 100 µM (inactive) | > 100 µM (inactive) |  |  | 
CC1=NNC(=O)C1C1CC(c2c[nH]c3ccccc23)=NNC1=S (configuration not stated) | > 100 µM (inactive) | 28.6 µM (inactive) | > 100 µM (inactive) | 39.7 µM | 68.4 µM (inactive) | > 100 µM (inactive) |  | > 100 µM (inactive) | 64 µM (inactive) | 68.5 µM (inactive) |  | > 100 µM (inactive) | > 100 µM (inactive) | > 100 µM (inactive) | 82.2 µM (inactive) | > 100 µM (inactive)
C[C@]12CC[C@H]3[C@@H](CCC4=C(Br)C(=O)C=C[C@@]43O)[C@@H]1CCC2=O | 59.7 µM (inactive) | 0.957 µM (active) | 20.9 µM (inactive) | 15.6 µM | 21.2 µM (inactive) | 50 µM (inactive) | 32.3 µM (inactive) | 30.6 µM (inactive) | 17.8 µM (inactive) | 23.5 µM (inactive) | 33.3 µM (inactive) | 94.2 µM (inactive) | 28.2 µM (inactive) |  |  | 53.7 µM (inactive)
CCC[C@H](O)[C@@H](CNc1cc(NC(C)=O)nc(NC(C)=O)n1)N(Cc1ccccc1)Cc1ccccc1 | 13.2 µM (inactive) | > 10 µM (inactive) | 61.9 µM (inactive) | 31.7 µM |  | 15.2 µM (inactive) | 27.9 µM (inactive) | 47 µM (inactive) | 17.1 µM (inactive) | 21.8 µM (inactive) | 15.7 µM (inactive) | 42.9 µM (inactive) | 20.9 µM (inactive) | 13.2 µM (inactive) |  | 
C[C@H]1CC(=O)C[C@@H]2CC[C@@H]3[C@H](CC[C@]4(C)C(OC(=O)c5cccc6c(=O)c7ccccc7[nH]c56)CC[C@@H]34)[C@]21C (some centres not stated) | 23.2 µM (inactive) | 23.8 µM (inactive) | 54.3 µM (inactive) | 31.3 µM | 14.3 µM (inactive) | 36.6 µM (inactive) | 31.2 µM (inactive) |  | 30.6 µM (inactive) | 26.7 µM (inactive) | 26.1 µM (inactive) | 38.2 µM (inactive) | 16 µM (inactive) | 31.1 µM (inactive) | 32.7 µM (inactive) | > 100 µM (inactive)
O=c1cnn(C2OC(CO)C(O)C(F)C2O)c(=O)[nH]1 (configuration not stated) | > 100 µM (inactive) | > 100 µM (inactive) | > 100 µM (inactive) | > 100 µM | > 100 µM (inactive) |  | > 100 µM (inactive) | > 100 µM (inactive) | > 100 µM (inactive) | > 100 µM (inactive) | > 100 µM (inactive) | > 100 µM (inactive) | > 100 µM (inactive) |  | > 100 µM (inactive) | > 100 µM (inactive)
CC(=O)/C(=C\c1ccc(Cl)c(Cl)c1)C(=O)C(C)CN(C)C (configuration not stated) | 14.5 µM (inactive) | < 0.01 µM (active) | 4.43 µM (inactive) | 2.33 µM | 2 µM (inactive) | 19.1 µM (inactive) | 2.21 µM (inactive) | 3.62 µM (inactive) | 13.4 µM (inactive) | 12.5 µM (inactive) |  | 6.89 µM (inactive) | 11.9 µM (inactive) |  | 2.65 µM (inactive) | 3.52 µM (inactive)
CCc1[nH]c(=O)c2oc3cc4ccccc4cc3c2c1C(=O)O | > 10 µM (inactive) |  | 3.91 µM (inactive) | > 10 µM | > 10 µM (inactive) |  | > 10 µM (inactive) |  |  | > 10 µM (inactive) | > 10 µM (inactive) |  |  | > 10 µM (inactive) |  | > 10 µM (inactive)
O=C(NN=C1NCCCCN1)Nc1ccc(Cl)cc1 | > 100 µM (inactive) | 47.2 µM (inactive) |  | > 100 µM | 26.5 µM (inactive) | > 100 µM (inactive) | > 100 µM (inactive) |  | > 100 µM (inactive) | > 100 µM (inactive) | > 100 µM (inactive) | > 100 µM (inactive) | > 100 µM (inactive) | 31.6 µM (inactive) | > 100 µM (inactive) | > 100 µM (inactive)
Cc1cc(C)c(C(=O)c2nnc3ccccc3c2N)c(C)c1 | 23.3 µM (inactive) | 31 µM (inactive) | 27 µM (inactive) |  | 7.55 µM (inactive) | 13.6 µM (inactive) | 16 µM (inactive) | 16.7 µM (inactive) | 22.1 µM (inactive) |  |  | 17 µM (inactive) | 13.5 µM (inactive) | 27.5 µM (inactive) | 16.6 µM (inactive) | 
COC(=O)c1c2c(cc3c1CC1(Cc4cc5c(c(C(C)=O)c4C1)CCCC5)C3)CCCC2 (configuration not stated) | > 100 µM (inactive) | 29.2 µM (inactive) |  | > 100 µM | 12.6 µM (inactive) | > 100 µM (inactive) | > 100 µM (inactive) | 66.4 µM (inactive) | > 100 µM (inactive) |  | > 100 µM (inactive) |  | 34.1 µM (inactive) |  | > 100 µM (inactive) | > 100 µM (inactive)
Clc1ccccc1C(Nc1ncccn1)Nc1ncccn1 | > 100 µM (inactive) |  | > 100 µM (inactive) | > 100 µM | > 100 µM (inactive) | > 100 µM (inactive) | > 100 µM (inactive) | > 100 µM (inactive) | > 100 µM (inactive) | > 100 µM (inactive) | > 100 µM (inactive) | > 100 µM (inactive) | > 100 µM (inactive) | 47 µM (inactive) | > 100 µM (inactive) | > 100 µM (inactive)
S=C(Nc1ccc2cn[nH]c2c1)Nc1ccc2cn[nH]c2c1 | 96.8 µM (inactive) |  | > 100 µM (inactive) | 63.5 µM |  | > 100 µM (inactive) | 70 µM (inactive) | 57.4 µM (inactive) | 41.6 µM (inactive) | 43 µM (inactive) | > 100 µM (inactive) | > 100 µM (inactive) | 45.1 µM (inactive) | 53 µM (inactive) | 33.5 µM (inactive) | > 100 µM (inactive)
CNC(=O)CCC(NC(=O)OC(C)(C)C)C(=O)NC(Cc1ccc(NC(=O)CCCCC(C)=O)cc1)C(=O)NCC(=O)NC (configuration not stated) | > 100 µM (inactive) |  | > 100 µM (inactive) | > 100 µM | > 100 µM (inactive) | > 100 µM (inactive) | > 100 µM (inactive) | > 100 µM (inactive) | > 100 µM (inactive) | > 100 µM (inactive) | > 100 µM (inactive) | > 100 µM (inactive) | > 100 µM (inactive) | > 100 µM (inactive) | > 100 µM (inactive) | > 100 µM (inactive)
COc1cccc2c(NNc3ccc(Cl)cc3)c3ccc([N+](=O)[O-])cc3nc12 | 12.6 µM (inactive) | 2.74 µM (inactive) | 9.84 µM (inactive) | 8.59 µM | 5.92 µM (inactive) | 10.9 µM (inactive) | 11.3 µM (inactive) | 36.4 µM (inactive) | 13.3 µM (inactive) | 4.92 µM (inactive) | 11.9 µM (inactive) | 39.7 µM (inactive) | 12.4 µM (inactive) |  | 5.43 µM (inactive) | 17.7 µM (inactive)
C[N+]12C=CC=C1C(N1CCCC1)c1sc(-c3ccc(Cl)cc3)cc12 (configuration not stated) | 28.6 µM (inactive) | 17.5 µM (inactive) | 16.9 µM (inactive) | 30.5 µM |  | 17.5 µM (inactive) | 16 µM (inactive) | 15.8 µM (inactive) |  | 18.1 µM (inactive) | 18.2 µM (inactive) | 17.2 µM (inactive) | 17.9 µM (inactive) | 11.3 µM (inactive) | 10.6 µM (inactive) | 
CC1(C)[C@@H](Cn2cnc3c(N)ncnc32)CC[C@@]1(C)CO | > 100 µM (inactive) | 51.9 µM (inactive) | > 100 µM (inactive) | 51.1 µM | 40.1 µM (inactive) | > 100 µM (inactive) | > 100 µM (inactive) | 50 µM (inactive) | 55 µM (inactive) | > 100 µM (inactive) | > 100 µM (inactive) | > 100 µM (inactive) | 60.7 µM (inactive) | > 100 µM (inactive) | > 100 µM (inactive) | 
C[C@]12C[C@@H](c3ccccc3)Nc3ccccc3N1C(c1ccccc1)=NO2 | 54.3 µM (inactive) | 35.9 µM (inactive) | 92.3 µM (inactive) | 35.4 µM | 46.2 µM (inactive) | 77.1 µM (inactive) |  | 26.2 µM (inactive) | 30.7 µM (inactive) | 52.1 µM (inactive) | 24.9 µM (inactive) |  | 16.1 µM (inactive) | 16.6 µM (inactive) |  | 33.4 µM (inactive)
CCn1c(=O)c2c3cc(OC(C)=O)ccc3oc2c2ccc(OC(C)=O)cc21 | 43.9 µM (inactive) | 17.2 µM (inactive) | 36.1 µM (inactive) | 39.1 µM |  | 37.9 µM (inactive) |  | 33.3 µM (inactive) | 37.9 µM (inactive) | 21.8 µM (inactive) | 36.9 µM (inactive) | 49 µM (inactive) | 33 µM (inactive) | 2.69 µM (inactive) | 20.2 µM (inactive) | 27.5 µM (inactive)
